# Measurements as given in ChEMBL document CHEMBL5518238, “Structure-Activity Relationship (SAR) Studies of Novel Monovalent AR/AR-V7 Dual Degraders with Potent Efficacy against Advanced Prostate Cancer” (J Med Chem, 2024).
# The source made the active and inactive calls. The rule behind the calls is not given here.
# Legend:
# [1] = biological target: T1, Androgen receptor (Homo sapiens) (UniProt P10275); assay: Binding affinity to AR (unknown origin) assessed as thermal stabilization at 10 uM incubated for 2 hrs by CETSA analysis; type: cell-based; conditions: 22Rv1
# T1 sequence (whole entry): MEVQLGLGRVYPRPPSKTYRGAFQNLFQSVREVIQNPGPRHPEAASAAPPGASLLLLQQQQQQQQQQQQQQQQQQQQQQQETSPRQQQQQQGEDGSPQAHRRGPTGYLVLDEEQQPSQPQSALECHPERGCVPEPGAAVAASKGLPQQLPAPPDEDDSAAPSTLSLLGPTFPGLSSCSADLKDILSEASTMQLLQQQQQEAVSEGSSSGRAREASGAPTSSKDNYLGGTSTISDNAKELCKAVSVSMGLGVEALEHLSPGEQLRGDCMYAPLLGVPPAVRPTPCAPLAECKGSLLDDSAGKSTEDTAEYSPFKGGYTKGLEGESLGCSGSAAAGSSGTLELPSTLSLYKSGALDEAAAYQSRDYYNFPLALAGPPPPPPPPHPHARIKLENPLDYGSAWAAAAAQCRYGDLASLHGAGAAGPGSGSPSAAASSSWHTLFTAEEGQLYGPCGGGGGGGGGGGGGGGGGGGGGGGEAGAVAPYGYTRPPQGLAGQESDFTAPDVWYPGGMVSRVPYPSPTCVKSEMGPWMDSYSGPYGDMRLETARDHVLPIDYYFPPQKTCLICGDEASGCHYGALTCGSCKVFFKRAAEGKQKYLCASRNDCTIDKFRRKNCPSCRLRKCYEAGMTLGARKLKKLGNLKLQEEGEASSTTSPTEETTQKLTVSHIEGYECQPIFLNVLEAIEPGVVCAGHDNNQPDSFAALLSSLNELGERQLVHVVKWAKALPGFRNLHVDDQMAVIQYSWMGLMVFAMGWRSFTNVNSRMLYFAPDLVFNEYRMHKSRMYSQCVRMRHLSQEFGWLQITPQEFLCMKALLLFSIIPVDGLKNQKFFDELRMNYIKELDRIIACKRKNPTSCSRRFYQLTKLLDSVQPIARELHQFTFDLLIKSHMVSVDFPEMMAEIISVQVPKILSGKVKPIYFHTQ
# CWR22R [2] = assay: Downregulation of AR-V7 mRNA expression in human 22Rv1 cells at 5 to 10 uM incubated for 12 hrs by qRT-PCR analysis; type: functional, cell-based; conditions: dose 5-10 µM
# CWR22R [3] = assay: Downregulation of AR mRNA expression in human 22Rv1 cells at 5 to 10 uM incubated for 12 hrs by qRT-PCR analysis; type: functional, cell-based; conditions: dose 5-10 µM
# CWR22R [4] = assay: Induction of apoptosis in human 22Rv1 cells assessed as effect on Bcl-2 level incubated for 24 hrs by Western blot analysis; type: functional, cell-based; conditions: dose <= 10.0 µM
# CWR22R [5] = assay: Induction of apoptosis in human 22Rv1 cells at 10 uM incubated for 24 hrs by Annexin V-FITC/PI staining based flow cytometric analysis (reference value: 3.70 %); type: functional
# [6] = Oral bioavailability in Sprague-Dawley rat at 50 mg/kg by LC-MS/MS analysis; type: ADME, organism-based; conditions: in vivo
# CWR22R [7] = assay: Antitumor activity against human 22Rv1 cells xenografted in NSG mouse assessed as tumor growth inhibition at 30 mg/kg, IG administered once daily for 21 days; type: functional; conditions: 22Rv1, po, 504 h, time 21 day, read-out: TGI
# CWR22R [8] = assay: Downregulation of AR-V7 expression in human 22Rv1 cells at 5 uM incubated for 24 hrs by Western blot analysis; type: functional, cell-based
# [9] = Volume of distribution at steady state in Sprague-Dawley rat at 5 mg/kg, iv by LC-MS/MS analysis; type: ADME, organism-based; conditions: in vivo
# CWR22R [10] = assay: Antitumor activity against human 22Rv1 cells xenografted in NSG mouse assessed as decrease in AR-V7 level in tumor at 10 mg/kg, IG administered once daily for 3 days by […] based analysis; type: functional, organism-based; conditions: time 3.0 day
# [11] = Half life in Sprague-Dawley rat at 50 mg/kg, po by LC-MS/MS analysis; type: ADME, organism-based; conditions: in vivo
# CWR22R [12] = assay: Antitumor activity against human 22Rv1 cells xenografted in NSG mouse assessed as decrease in AR level in tumor at 10 mg/kg, IG administered once daily for 3 days by […] based analysis; type: functional, organism-based; conditions: time 3.0 day
# CWR22R [13] = assay: Downregulation of […] mRNA expression in human 22Rv1 cells incubated for 24 hrs by qRT-PCR analysis; type: functional, cell-based; conditions: dose 5-10 µM
# CWR22R [14] = assay: Downregulation of MMP16 mRNA expression in human 22Rv1 cells at 10 uM incubated for 24 hrs by qRT-PCR analysis; type: functional, cell-based
# [15] = tested on: Androgen receptor (Homo sapiens), P10275 [UNDEFINED MUTATION]; assay: Binding affinity to AR-V7 (unknwon origin) assessed as thermal stabilization at 10 uM incubated for 2 hrs by CETSA analysis; type: cell-based; conditions: 22Rv1
# CWR22R [16] = assay: Inhibition of colony formation in human 22Rv1 cells incubated for 2 weeks by crystal violet staining based analysis; type: functional, cell-based; conditions: dose 0.1-5 µM
# [17] = MRT (0 to t) in Sprague-Dawley rat at 50 mg/kg, po by LC-MS/MS analysis; type: ADME, organism-based; conditions: in vivo
# LNCaP = assay: Antiproliferative activity against human LNCaP cells assessed as inhibition of cell growth incubated for 48 hrs by CCK-8 assay; type: functional, cell-based
# CWR22R [18] = assay: Downregulation of KLK2 mRNA expression in human 22Rv1 cells incubated for 24 hrs by qRT-PCR analysis; type: functional, cell-based; conditions: dose 5-10 µM
# [19] = biological target: T1, Androgen receptor (Homo sapiens); assay: Induction of AR degradation in human LNCaP cells incubated for 24 hrs by Western blot analysis; type: cell-based; conditions: dose <= 30.0 µM
# CWR22R [20] = assay: Downregulation of DHCR24 mRNA expression in human 22Rv1 cells at 10 uM incubated for 24 hrs by qRT-PCR analysis; type: functional, cell-based
# [21] = biological target: T1, Androgen receptor (Homo sapiens); assay: Induction of AR degradation in human 22Rv1 cells at 10 uM incubated for 24 hrs in presence of CHX by Western blot analysis; type: cell-based
# CWR22R [22] = assay: Downregulation of KLK3 mRNA expression in human 22Rv1 cells incubated for 24 hrs by qRT-PCR analysis; type: functional, cell-based; conditions: dose 5-10 µM
# [23] = biological target: T1, Androgen receptor (Homo sapiens); assay: (§1) Induction of AR degradation in human 22Rv1 cells incubated for 24 hrs by Western blot analysis; type: cell-based; conditions: dose 1-10 µM
# Androgen receptor = biological target: T2, Androgen receptor (Homo sapiens, UniProt P10275); assay: as §1; type: cell-based
# T2 sequence (P10275 whole entry): T1 sequence (whole entry)
# CWR22R [24] = assay: Effect on MR level in human 22Rv1 at 2.5 to 20 uM incubated for 24 hrs by Western blot analysis; type: functional, cell-based; conditions: dose 2.5-20 µM
# CWR22R [25] = assay: Downregulation of SLC26A2 mRNA expression in human 22Rv1 cells at 10 uM incubated for 24 hrs by qRT-PCR analysis; type: functional, cell-based
# [26] = AUC (0 to infinity) in Sprague-Dawley rat at 50 mg/kg, po by LC-MS/MS analysis; type: ADME, organism-based; conditions: in vivo
# CWR22R [27] = assay: Induction of cell cycle arrest in human 22Rv1 cells assessed as accumulation of cells at G0/G1 phase at 5 uM incubated for 24 hrs by DAPI staining based flow cytometric analysis (reference value: 26.3 %); type: functional
# [28] = tested on: Androgen receptor (Homo sapiens), P10275 [UNDEFINED MUTATION]; assay: Induction of AR-V7 degradation in human 22Rv1 cells at 20 uM incubated for 24 hrs in presence of Bortezomib by Western blot analysis; type: cell-based
smiles,measurement,setting,value
CC1(C)C(=O)N(c2ccc(C#N)c(C(F)(F)F)c2)C(=O)N1CCNc1ccc(F)c2ncccc12,Activity,[1],inactive
same,Activity,CWR22R [2],Active
same,Activity,CWR22R [3],Active
same,Activity,CWR22R [4],Dose-Dependent Effect
same,Activity,CWR22R [5],30.91%
same,bioavailability,[6],11.9%
same,inhibition in vivo at 30 mg/kg,CWR22R [7],63%
same,Activity,CWR22R [8],Active
same,Vdss,[9],2.5 L/kg
same,Activity,CWR22R [10],Active
same,half-life,[11],2.2 h
same,Activity,CWR22R [12],Active
same,Activity,CWR22R [13],Dose-Dependent Effect
same,Activity,CWR22R [14],Active
same,Activity,[15],inactive
same,inhibition,CWR22R [16],Dose-Dependent Effect
same,MRT last,[17],3.2 h
same,IC50,LNCaP,1400 nM
same,Activity,CWR22R [18],Dose-Dependent Effect
same,Activity,[19],Dose-Dependent Effect
same,Activity,CWR22R [20],Active
same,Activity,[21],Active
same,Activity,CWR22R [22],Dose-Dependent Effect
same,Activity,[23],Dose-Dependent Effect
same,DC50,Androgen receptor,2670 nM
same,Activity,CWR22R [24],Active
same,Activity,CWR22R [25],Active
same,AUC(0-inf),[26],3470 ng·h/mL
same,Activity,CWR22R [27],50.6%
same,Activity,[28],Active
